Values after ≈ are worked out from the molar mass of the structure shown. Where two headings read alike, the source gives them in different places. Residues, ends and D or L forms follow the SMILES beside them.
Experiments:
[1] = test system: Staphylococcus aureus (ATCC 33592) Methicillin resistant Genatmicin resistant; test: microbe, parasite or virus in culture; assay type: cell-based; settings: read-out: Minimum inhibitory concentration (MIC)
Description: (§1) Antibacterial assay against various Gram-positive and Gram-negative strains of bacteria was performed by the serial two-fold dilution method according to the previously reported procedure, [36]. The antibacterial assays were repeated thrice and the averages of these MIC values were reported.

[2] = test system: Escherichia coli (ATCC 9637); test: microbe, parasite or virus in culture; assay type: cell-based; settings: read-out: Minimum inhibitory concentration (MIC)
Description: as §1

[3] = test system: Staphylococcus aureus (BAA-44)MDR; test: microbe, parasite or virus in culture; assay type: cell-based; settings: BAA44; Staphylococcus aureus (BAA-44) MDR; averages of three repeats; read-out: Minimum inhibitory concentration (MIC)
Description: as §1

[4] = test system: Escherichia coli (ATCC 25922); test: microbe, parasite or virus in culture; assay type: cell-based; settings: read-out: Minimum inhibitory concentration (MIC)
Description: as §1

[5] = test system: Staphylococcus aureus (ATCC 25923); test: microbe, parasite or virus in culture; assay type: cell-based; settings: read-out: Minimum inhibitory concentration (MIC)
Description: as §1

[6] = test system: Pseudomonas aeruginosa (ATCC BAA-427); test: microbe, parasite or virus in culture; assay type: cell-based; settings: read-out: Minimum inhibitory concentration (MIC)
Description: as §1

[7] = test system: Bacillus subtilis (ATCC 6633); test: microbe, parasite or virus in culture; assay type: cell-based; settings: read-out: Minimum inhibitory concentration (MIC)
Description: as §1

[8] = test system: Staphylococcus aureus (ATCC 700698 MRSA); test: microbe, parasite or virus in culture; assay type: cell-based; settings: read-out: Minimum inhibitory concentration (MIC)
Description: as §1

[9] = test system: Staphylococcus aureus (ATCC 700699 MRSA); test: microbe, parasite or virus in culture; assay type: cell-based; settings: read-out: Minimum inhibitory concentration (MIC)
Description: as §1

[10] = test system: Staphylococcus aureus (ATCC 29213); test: microbe, parasite or virus in culture; assay type: cell-based; settings: read-out: Minimum inhibitory concentration (MIC)
Description: as §1

[11] = test system: Klebsiella pneumoniae (ATCC 27736); test: microbe, parasite or virus in culture; assay type: cell-based; settings: read-out: Minimum inhibitory concentration (MIC)
Description: as §1

[12] = test system: S. aureus (ATCC 25923); assay type: cell-based, Staphylococcus aureus; settings: ATCC 25923, 1 h
Description: (§2) E. coli ATCC25922 was grown to 10^6 CFU/ml in fresh MH broth with various divalent and monovalent salts at their physiological concentrations. Serial dilutions of chrysophsin-1 and its variants prepared with the same MH broth were added to the E. coli ATCC 25922 suspensions. The bacteria were incubated at 37 °C in a shaking incubator for 18 h and the MIC values of individual peptides against E. coli ATCC 25922 were determined. Thermal tolerance of Chrysophsin-1 and its variants was checked by incubating the peptides at 4 °C, 60 °C and 90 °C for 1 h prior to MIC determination. The antibacterial activity in presence of serum was carried out by adding a final concentration of 10% fetal bovine serum in the assay diluents containing 0.4% BSA, 0.02% glacial acetic acid. The subsequent steps in both the experiments were consistent with the MIC determination method.

[13] = test system: Cryptococcus neoformans; test: microbe, parasite or virus in culture; assay type: cell-based; settings: 72 h; read-out: Minimum inhibitory concentration (MIC)
Description: (§3) The anti- fungal activity of peptides was performed according to the standard micro broth dilution technique as per NCCLS guidelines. These plates were incubated in a moist chamber at 35 °C, and an absorbance at 492 nm was recorded on a VersaMax microplate reader after 48 h for C. albicans ATCC 10231 and C. parapsilosis ATCC 22019 and 72 h for C. neoformans.

[14] = test system: Candida albicans (ATCC 10231); test: microbe, parasite or virus in culture; assay type: cell-based; settings: ATCC 10231, 48 h; read-out: Minimum inhibitory concentration (MIC)
Description: as §3

[15] = test system: Candida parapsilosis (ATCC 22019); test: microbe, parasite or virus in culture; assay type: cell-based; settings: ATCC 22019, 48 h; read-out: Minimum inhibitory concentration (MIC)
Description: as §3

[16] = test system: E. coli ATCC 25922; test: Synergy with conventional antibiotics, checkerboard titration; assay type: cell-based, Escherichia coli
Description: The checkerboard titration method was followed to check the synergy of peptides with other antibiotics. First, 2-fold serial dilutions of the antibiotics and antimicrobial peptides were prepared. Subsequently, 50 μl each of different concentrations of antibiotics and of antimicrobial peptides was mixed and added into 100 μl of log phase bacteria culture in a 96-well plate. The plates were then incubated at 37 °C for 24 h. The fractional inhibitory concentration (FIC) index (FICI) was calculated as follows[39]: FICI=(MICofdrugAincombination)/(MICofdrugAalone)+(MICofdrugBincombination)/(MICofdrugB): FICI < 0.5 is considered to indicate synergy; 0.5 < FICI < 1.0 is considered additive; 1.0 < FICI < 4.0 is considered indifferent; and FICI > 4.0 is considered antagonism.

[17] = test system: E. coli (ATCC 25922); assay type: cell-based, Escherichia coli; settings: ATCC 25922, 1 h
Description: as §2

[18] = test system: E. coli ATCC 25922; assay type: cell-based, Escherichia coli; settings: ATCC 25922, 18 h
Description: as §2

[19] = test system: Sporothrix schenckii (Patient isolates); test: microbe, parasite or virus in culture; assay type: cell-based; settings: 48 h; read-out: Minimum inhibitory concentration (MIC)
[20] = ATCC33592, Staphylococcus aureus (ATCC 33592), methicillin and gentamicin resistant, averages of three repeats
[21] = ATCC9637, Escherichia coli (ATCC 9637), averages of three repeats
[22] = ATCC25922, Escherichia coli (ATCC 25922), averages of three repeats
[23] = ATCC25923, Staphylococcus aureus (ATCC 25923), averages of three repeats
[24] = ATCCBAA427, Pseudomonas aeruginosa (ATCC BAA-427), averages of three repeats
[25] = ATCC6633, Bacillus subtilis (ATCC 6633), averages of three repeats
[26] = Staphylococcus aureus (ATCC 700698 MRSA), averages of three repeats
[27] = Staphylococcus aureus (ATCC 700699 MRSA), averages of three repeats
[28] = ATCC29213, Staphylococcus aureus (ATCC 29213), averages of three repeats
[29] = ATCC27736, Klebsiella pneumoniae (ATCC 27736), averages of three repeats

SMILES: CNC(C)C1CCC(N)C(OC2C(N)CC(N)C(OC3OCC(C)(O)C(NC)C3O)C2O)O1 (stereo not shown) [Gentamicin, reference compound]
- MIC [1, 20]: > 86.8 µM
- MIC [2, 21]: 5 µM (≈ 2.39 µg/mL)
- MIC [3]: > 86.8 µM
- MIC [4, 22]: 2.5 µM (≈ 1.19 µg/mL)
- MIC [5, 23]: 0.67 µM (≈ 0.32 µg/mL)
- MIC [6, 24]: 1.35 µM (≈ 0.645 µg/mL)
- MIC [7, 25]: 1.2 µM (≈ 0.573 µg/mL)
- MIC [8, 26]: > 86.8 µM
- MIC [9, 27]: > 86.8 µM
- MIC [10, 28]: 1.35 µM (≈ 0.645 µg/mL)
- MIC [11, 29]: 1.35 µM (≈ 0.645 µg/mL)

SMILES: CCn1cc(C(=O)O)c(=O)c2cc(F)c(N3CCNCC3)cc21 [Norfloxacin, reference compound]
- MIC [1, 20]: 1.22 µM (≈ 0.39 µg/mL)
- MIC [2, 21]: 0.15 µM (≈ 0.0479 µg/mL)
- MIC [3]: 39.1 µM (≈ 12.5 µg/mL)
- MIC [4, 22]: 0.3 µM (≈ 0.0958 µg/mL)
- MIC [5, 23]: 1.22 µM (≈ 0.39 µg/mL)
- MIC [6, 24]: 1.22 µM (≈ 0.39 µg/mL)
- MIC [7, 25]: 1.2 µM (≈ 0.383 µg/mL)
- MIC [8, 26]: > 156 µM
- MIC [9, 27]: > 156 µM
- MIC [10, 28]: 2.44 µM (≈ 0.779 µg/mL)
- MIC [11, 29]: 0.15 µM (≈ 0.0479 µg/mL)

SMILES: CC[C@H](C)[C@H](NC(=O)[C@H](C)NC(=O)CNC(=O)[C@H](CCCCN)NC(=O)[C@@H](NC(=O)[C@H](CC(C)C)NC(=O)[C@H](Cc1c[nH]c2ccccc12)NC(=O)CNC(=O)[C@H](Cc1ccccc1)NC(=O)[C@@H](N)Cc1ccccc1)[C@@H](C)CC)C(=O)N[C@@H](Cc1c[nH]cn1)C(=O)N[C@@H](C)C(=O)NCC(=O)N[C@@H](CCCCN)C(=O)N[C@@H](C)C(=O)N[C@H](C(=O)N[C@@H](Cc1c[nH]cn1)C(=O)N1CCC[C@H]1C(=O)N[C@@H](CC(C)C)C(=O)N[C@H](C(=O)N[C@@H](Cc1c[nH]cn1)C(=O)N[C@@H](CCCNC(=N)N)C(=O)N[C@@H](CCCNC(=N)N)C(=O)N[C@@H](CCCNC(=N)N)C(=O)N[C@@H](Cc1c[nH]cn1)C(N)=O)[C@@H](C)CC)[C@@H](C)CC [Peptide G18P-Chr-1] (H-FFGWLIKGAIHAGKAIHPLIHRRRH-NH2)
- Antibacterial activity (MIC) after incubating peptide at 4 °C [12]: 3 µM
- Antibacterial activity (MIC) after incubating peptide at 60 °C [12]: 33 µM
- Antibacterial activity (MIC) after incubating peptide at 90 °C [12]: 33 µM
- MIC ([1]; ATCC 33592): 1.6 µM (≈ 4.69 µg/mL)
- MIC ([2]; ATCC 9637): 3 µM (≈ 8.79 µg/mL)
- MIC ([4]; ATCC 25922): 3 µM (≈ 8.79 µg/mL)
- MIC ([5]; ATCC 25923): 3 µM (≈ 8.79 µg/mL)
- MIC ([6]; ATCC BAA-427): 6.8 µM (≈ 19.9 µg/mL)
- MIC ([7]; ATCC 6633): 3 µM (≈ 8.79 µg/mL)
- MIC ([8]; ATCC 700698): 3 µM (≈ 8.79 µg/mL)
- MIC ([9]; ATCC 700699): 3 µM (≈ 8.79 µg/mL)
- MIC ([10]; ATCC 29213): 6.8 µM (≈ 19.9 µg/mL)
- MIC ([11]; ATCC 27736): 13.6 µM (≈ 39.9 µg/mL)
- MIC [13]: 13.6 µM (≈ 39.9 µg/mL)
- MIC [14]: 13.6 µM (≈ 39.9 µg/mL)
- MIC [15]: 13.6 µM (≈ 39.9 µg/mL)
- interaction of peptide with chloramphenicol (by FICI) [16]: additivity
- Antibacterial activity (MIC) after incubating peptide at 4 °C [17]: 3 µM
- Antibacterial activity (MIC) after incubating peptide at 60 °C [17]: 8.3 µM
- Antibacterial activity (MIC) after incubating peptide at 90 °C [17]: 17.2 µM
- Antibacterial activity (MIC) in the presence of 10% FBS [18]: 17.2 µM
- Antibacterial activity (MIC) in the presence of FeCl3 [18]: 4.1 µM
- Antibacterial activity (MIC) in the presence of KCl [18]: 4.3 µM
- Antibacterial activity (MIC) in the presence of MgCl2 [18]: 8.6 µM
- Antibacterial activity (MIC) in the presence of NH4Cl [18]: 4.3 µM
- Antibacterial activity (MIC) in the presence of NaCl [18]: 4.3 µM
- MIC [19]: 27.2 µM (≈ 79.7 µg/mL)
